In data set [1] the test system is beagle dog models of heart failure. The data set can be described thus: Beagle dog models of rapid ventricular pacing-induced heart failure. In kind it is in vivo. On the procedure:
After induction of general anesthesia with thiopental sodium (20 mg/kg, i.v.: 0.5 g of Labonal injection, Nipro ES Pharma Corporation) in 10- to 12-month-old male beagle dogs (9.80-11.50 kg), a tracheal cannula was inserted into the airway, and artificial respiration was performed with an Acoma veterinary ventilator (PRO-45Va, Acoma Medical Corporation). Anesthesia was maintained by inhalation of a gas mixture (Air:O2=3:0.2) and 1.0 to 2.5% isoflurane (isoflurane inhalation solution “Pfizer”, Mylan Seiyaku Co., Ltd.) using an Acoma animal anesthesia machine (NS-5000A, Acoma Medical Industry Co., Ltd.) to maintain a constant depth of anesthesia. An incision was made in the right side of the neck of the animal, an animal internal cardiac pacemaker (SIP-501, Star Medical Corporation) was implanted subcutaneously, a retractable screw-in reed (Tendril STS J, St. Jude Medical, Inc.) was inserted through the right jugular vein under X-ray fluoroscopy (BV Pulsera, Koninklijke Philips N.V.), and the tip was implanted in the right ventricular wall. Pacing was started at 244-251 beats/min on postoperative day 1. Dogs with ejection fraction (EF) decreasing to 30-50% at 4 weeks after pacemaker activation were considered to have heart failure and subjected to analysis.
Echocardiography was performed using a general-purpose ultrasound imaging system (Vivid S6, GE Medical Systems). The left ventricular end-diastolic diameter (LVIDd), left ventricular end-systolic diameter (LVIDs), ejection fraction (EF), and left ventricular internal diameter shortening (% FS) were measured in M-mode by placing a sector probe (10 MHz) on the chest.
Dogs were anesthetized intravenously with 14.5 to 22.3 mg/kg of secobarbital sodium (Injectable Ionar sodium (0.2), Nichi-Iko Co., Ltd.), followed by subcutaneous administration of 0.2 mg/kg of meloxicam (Metacam 0.5% injection, Boehringer Ingelheim Animal Health Japan Co.). A tracheal tube was inserted into the airway and connected to an Acoma animal ventilator (PRO-45Va, Acoma Medical Industry Co., Ltd.). The ventilator was set at a respiratory rate of 14-18 strokes/min and a tidal volume of 10-20 mL/kg/stroke, and respiration was controlled by an Acoma animal anesthesia machine (NS-5000A, Acoma Medical Industry Co., Ltd.) using a gas mixture (FiO2=0.3-1.0). The exhaled CO2 partial pressure was monitored using an exhaled carbon dioxide monitor (OLG-2800, Nihon Kohden Corporation). The animals were fixed in the dorsal position and the thighs and neck were shom. Anesthesia was maintained by continuous intravenous infusion of sodium secobarbital (5 mg/kg/hr) through the radial cutaneous vein using a Telfusion syringe pump (STC-523, Terumo Corporation). A Swan-Ganz catheter was inserted through the left femoral vein. A catheter for coronary angiography was inserted through the left femoral artery. A 5F sheath for arterial blood sampling was placed in the right femoral artery. A catheter for PV-loop analysis was inserted from the left internal carotid artery. An 8F occlusion balloon was placed from the right femoral vein for occlusion testing. In addition, KUS121 was administered from the left common jugular vein.
Beagle dog models of heart failure were prepared by rapid ventricular pacing. Cardiac function was assessed by echocardiography before KUS121 administration and after continuous infusion at 40 mg/h. KUS121 increased LVEF, even if it was based on either of the Teichholz method and the modified-Simpson's method, and increased % FS (FIG. 18). Changes in heart rate, systolic blood pressure, diastolic blood pressure, left ventricular ejection fraction, mean pulmonary artery pressure, pulmonary capillary wedge pressure, left ventricular end-diastolic pressure, and adjusted dp/dt are shown in FIGS. 19 to 21. […]

Data set [2] has as its system mouse models of HFpEF. The data set can be described thus: Mouse models of HFpEF (high-fat diet + L-NAME), acute effect. In kind it is in vivo. The note with it: high-fat diet+L-NAME group. How it is done:
Mouse models of HFpEF were prepared by high-fat diet and administration of L-NG-nitroarginine methyl ester (L-NAME) to test the effect of KUS121 on HFpEF. ICR mice were fed with normal diet and ultrapure water or high-fat diet and 0.5 g/L of L-NAME for 5 weeks.
Then, acute effect of KUS121 on HFpEF was tested. ICR mice fed with normal diet or high-fat diet+0.5 g/L of L-NAME were injected intraperitonially with 50 mg/kg of KUS121 and cardiac function was assessed by echocardiography before and 10 minutes after the injection. No difference in echocardiography was observed between the normal diet group and the high-fat diet+L-NAME group before injection of 5% glucose or KUS121 (FIG. 26). EF was not changed after […] in the control group and the high-fat diet+L-NAME group (FIG. 26, left and middle), but was increased after KUS121 injection in the high-fat diet+L-NAME group (FIG. 26, right).
Diastolic function was also tested. Global longitudinal strain (GLS), E/A, and E/E′ were assessed for evaluating cardiac diastolic function. Mice from the high-fat diet+L-NAME group had diastolic dysfunction as indicated by high levels of GLS, E/A, and E/E′ before KUS121 administration, the degree of which varied among the individual animals (FIG. 27).
To assess exercise tolerance, treadmill test (TMT) was performed.

[3] abbreviates: echocardiography, before vs after continuous infusion at 40 mg/h.
[4] abbreviates: infusion per FIG. 17 protocol, cardiac catheterization.
The mark [5] stands for this setting: 50 mg/kg i.p., before and after administration.

The results in this text go back to US20250057823A1, “COMPOSITION FOR IMPROVING CARDIAC FUNCTION” (Kyoto University, priority 2021, published 2025).

Structures can show the parent of a compound that is named as a salt.

Turning to `Cc1cc(F)ccc1-c1ccc(/N=N/c2cc(S(=O)(=O)O)c3ccccc3c2N)cn1` [KUS121, 4-amino-3-[6-(4-fluoro-2-methylphenyl)pyridine-3-ylazo]naphthalene-1-sulfonic acid sodium salt], in data set [1] (blood samples collected during acute phase), the “liver and kidney functions” value is reported as “remained normal”. Also, in data set [1] (setting [3]), the “% FS (fractional shortening in left ventricle)” value was “increased”, the “LVEF based on the Teichholz method” value is listed as “increased” and the “LVEF based on the modified-Simpson's method” value is listed as “increased”. In data set [1] (infusion per FIG. 17 protocol), the heart rate entry is “without affecting”, the “left ventricular diastolic function” value was “improved”, the “left ventricular systolic function” value was “improved” and the systolic blood pressure entry is listed as “without affecting”. Moreover, in data set [1] (setting [4]), the pulmonary artery pressure result was “lowered” and the “pulmonary capillary wedge pressure” value is “lowered”. Besides, in data set [2] (setting [5]), the E/A entry was “improved”, the “E/E′” value is reported as “improved” and the “Global longitudinal strain (GLS)” value is recorded as “improved”. For the same molecule, the “EF (left ventricular ejection fraction)” value in data set [2] (50 mg/kg i.p., echocardiography before and 10 minutes after injection) is given as “increased”. Further, in data set [2] (before and after 50 mg/kg), the blood pressure entry is “lowered the blood pressure”, the “exercise tolerance (distance traveled in treadmill test)” value is “improved the exercise tolerance” and the heart rate result is listed as “slightly lowered the heart rate”.
